The assay deals with cells. Put plainly: cell cycle experiments (G2/M). Format: cell-based.

On to `N=C(N)c1ccc(OCCCCCOc2ccc(C(=N)N)cc2)cc1` [pentamidine], for which the “effect on cell cycle” value is recorded as “maintain cells in the G2/M cell cycle”.

For the origin of these results see US7915416B2, “Tetrahydroquinolines” (Merck Patent GmbH, priority 2004, dated 2011).
